The record followed here is patent publication US20250136606A1, “MODULATORS OF TRPML, THEIR COMPOSITIONS AND METHODS OF USE” (Caraway Therapeutics, Inc., priority 2021, published 2025).

SMILES strings stand for the structures. Read-outs that look alike come from different tables or passages of the source.

What all share (format): cell-based
One assay deals with TRPML1 (Homo sapiens, UniProt Q9GZU1). The assay can be described thus: Fluorescent TRPML1 assay (Fluo4-AM calcium fluorescence in doxycycline-induced HEK-293 Trex cells). The gist of the method:
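First, expression of surface-targeted mutant human TRPML1 is induced in HEK-293 Trex cells with 0.5 ug/mL doxycycline the day before. Next, cells take up 1 micromolar Fluo4-AM in Ringer's with 0.1% Pluronic. Finally, they are added to compounds (6 nanomolar–20 micromolar final) in 10 mM calcium Ringer's and fluorescence is read.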

The target of another assay is T1, TRPML2 (Homo sapiens, UniProt Q8IZK6).
T1 construct: expressed in transfected cells
T1 sequence (Q8IZK6 1-566): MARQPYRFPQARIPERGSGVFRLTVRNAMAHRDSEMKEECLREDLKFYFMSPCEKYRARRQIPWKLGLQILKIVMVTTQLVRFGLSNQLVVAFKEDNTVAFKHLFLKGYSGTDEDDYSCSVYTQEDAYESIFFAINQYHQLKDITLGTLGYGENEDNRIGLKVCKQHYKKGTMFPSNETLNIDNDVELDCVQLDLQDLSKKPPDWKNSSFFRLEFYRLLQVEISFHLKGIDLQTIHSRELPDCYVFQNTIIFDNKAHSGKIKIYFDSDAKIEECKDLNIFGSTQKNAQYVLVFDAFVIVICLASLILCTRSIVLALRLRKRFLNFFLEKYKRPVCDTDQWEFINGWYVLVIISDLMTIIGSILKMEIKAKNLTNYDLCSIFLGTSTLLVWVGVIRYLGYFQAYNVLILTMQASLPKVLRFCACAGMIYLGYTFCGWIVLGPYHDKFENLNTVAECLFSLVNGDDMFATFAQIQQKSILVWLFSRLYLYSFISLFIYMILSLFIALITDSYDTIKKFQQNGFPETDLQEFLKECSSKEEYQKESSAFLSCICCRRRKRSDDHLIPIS
The assay can be described thus: Fluorescent TRPML2 assay (performed as for TRPML1, substituting the TRPML2 subtype). Summed up: (§1)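 Agonist activity is scored as percent of plate controls from Fluo4 fluorescence after dye-loaded, doxycycline-induced HEK-293 Trex cells meet compound in high-calcium (10 mM) Ringer's. Compounds run in half-log dilutions from 20 micromolar final, in triplicate.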

The target in the next assay is T2, TRPML3 (Homo sapiens, UniProt Q8TDD5).
T2 construct: expressed in transfected cells
T2 sequence (Q8TDD5 1-553): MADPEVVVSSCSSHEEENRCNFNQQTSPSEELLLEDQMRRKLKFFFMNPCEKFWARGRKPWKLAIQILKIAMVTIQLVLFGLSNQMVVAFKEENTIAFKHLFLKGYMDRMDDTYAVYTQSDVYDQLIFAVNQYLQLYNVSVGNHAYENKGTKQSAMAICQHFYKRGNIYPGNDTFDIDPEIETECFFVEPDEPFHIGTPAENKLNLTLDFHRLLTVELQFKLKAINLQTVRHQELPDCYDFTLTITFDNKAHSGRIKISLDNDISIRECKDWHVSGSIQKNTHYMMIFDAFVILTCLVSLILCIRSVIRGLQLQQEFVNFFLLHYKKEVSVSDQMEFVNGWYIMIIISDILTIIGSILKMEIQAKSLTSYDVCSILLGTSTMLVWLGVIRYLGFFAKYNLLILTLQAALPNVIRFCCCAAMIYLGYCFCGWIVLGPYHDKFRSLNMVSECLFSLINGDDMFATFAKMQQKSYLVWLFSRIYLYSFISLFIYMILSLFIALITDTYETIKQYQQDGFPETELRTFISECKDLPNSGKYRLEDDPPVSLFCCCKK
The assay can be described thus: Fluorescent TRPML3 assay (performed as for TRPML1, substituting the TRPML3 subtype). Summed up: as §1

Sequence of TRPML1 (Q9GZU1 whole entry L15A/L16A/L577A/L578A, form open): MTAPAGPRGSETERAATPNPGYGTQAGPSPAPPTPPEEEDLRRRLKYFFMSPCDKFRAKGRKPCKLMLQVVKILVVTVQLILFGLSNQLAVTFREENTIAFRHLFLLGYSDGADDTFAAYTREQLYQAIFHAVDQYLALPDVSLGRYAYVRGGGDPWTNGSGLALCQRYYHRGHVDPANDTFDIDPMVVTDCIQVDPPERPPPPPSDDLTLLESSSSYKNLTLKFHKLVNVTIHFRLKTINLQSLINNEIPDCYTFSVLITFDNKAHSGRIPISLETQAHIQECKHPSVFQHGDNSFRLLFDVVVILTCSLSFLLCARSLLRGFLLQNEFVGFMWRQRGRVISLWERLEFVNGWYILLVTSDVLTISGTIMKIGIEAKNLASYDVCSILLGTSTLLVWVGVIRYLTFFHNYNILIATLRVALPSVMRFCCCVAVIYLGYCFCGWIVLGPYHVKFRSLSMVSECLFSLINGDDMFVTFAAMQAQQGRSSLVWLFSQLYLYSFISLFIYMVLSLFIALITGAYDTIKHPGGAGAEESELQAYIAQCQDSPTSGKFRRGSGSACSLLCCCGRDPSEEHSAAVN

The term EC50 denotes the concentration at which the effect is half-maximal. As for `C[C@@H]1CN(c2ncnc3c2c(C(F)F)cn3-c2cc(C#N)ccn2)[C@@H](C)CN1C(=O)OC1(C(F)(F)F)CCC1` [Compound 614, 1-(trifluoromethyl)cyclobutyl (2R,5S)-4-(7-(4-cyanopyridin-2-yl)-5-(difluoromethyl)-7H-pyrrolo[2,3-d]pyrimidin-4-yl)-2,5-dimethylpiperazine-1-carboxylate], the EC50 was less than 100 nM at TRPML1, 100 to 500 nM on TRPML2 and less than 100 nM on TRPML3.

As for `C[C@H]1CN(C(=O)OC(C)(C)C)CCN1c1ncnc2c1c(C1CC1)cn2C12CCC(CC1)CC2` [Compound 364, tert-butyl (S)-4-(7-(bicyclo[2.2.2]octan-1-yl)-5-cyclopropyl-7H-pyrrolo[2,3-d]pyrimidin-4-yl)-3-methylpiperazine-1-carboxylate], the EC50 at TRPML1 (fluorescent calcium assay) was less than 100 nM; at TRPML2 (fluorescent calcium assay), 100 to 500 nM; on TRPML3 (fluorescent calcium assay) it was less than 100 nM.

In the case of `C[C@H]1CN(C(=O)OC(C)(C)C)CCN1c1ncnc2c1c(N1CCOCC1)cn2-c1cccc(Cl)c1` [Compound 230, tert-Butyl (S)-4-(7-(3-chlorophenyl)-5-morpholino-7H-pyrrolo[2,3-d]pyrimidin-4-yl)-3-methylpiperazine-1-carboxylate], the EC50 on TRPML1 (fluorescent calcium assay) was 100 to 500 nM; on TRPML2 (fluorescent calcium assay), 100 to 500 nM; on TRPML3 (fluorescent calcium assay) it was less than 100 nM.

Regarding `C[C@@H]1CN(c2ncnc3c2c(N(C)C)cn3-c2cc(C#N)ccn2)CCN1C(=O)OC(C)(C)C` [Compound 427, tert-Butyl (R)-4-(7-(4-cyanopyridin-2-yl)-5-(dimethylamino)-7H-pyrrolo[2,3-d]pyrimidin-4-yl)-2-methylpiperazine-1-carboxylate], the EC50 on TRPML1 (fluorescent calcium assay), on TRPML2 (fluorescent calcium assay) and on TRPML3 (fluorescent calcium assay) was less than 100 nM in each case.

For the compound `C[C@H]1CN(C(=O)OC(C)(C)C)CCN1c1ncnc2c1c(C(F)(F)F)cn2-c1cccc(Cl)c1` [Compound 494, tert-butyl (S)-4-(7-(3-chlorophenyl)-5-(trifluoromethyl)-7H-pyrrolo[2,3-d]pyrimidin-4-yl)-3-methylpiperazine-1-carboxylate], the EC50 on TRPML1 is less than 100 nM; on TRPML2, 100 to 500 nM; at TRPML3 it was less than 100 nM.

In the case of `C[C@H]1CN(C(=O)OC(C)(C)C)CCN1c1ncnc2c1c(N1CCC[C@@H]1CO)cn2-c1cc(F)cc(F)c1` [Compound 307, tert-butyl (S)-4-(7-(3,5-difluorophenyl)-5-((R)-2-(hydroxymethyl)pyrrolidin-1-yl)-7H-pyrrolo[2,3-d]pyrimidin-4-yl)-3-methylpiperazine-1-carboxylate], the EC50 at TRPML1 (fluorescent calcium assay) is 500 to 2000 nM; at TRPML2 (fluorescent calcium assay), 500 to 2000 nM; at TRPML3 (fluorescent calcium assay), less than 100 nM.

On to `CCN(CC)c1cn(-c2cc(C#N)ccn2)c2ncnc(N3CCN(C(=O)OC(C)(C)C)CC3)c12` [Compound 441, tert-butyl 4-(7-(4-cyanopyridin-2-yl)-5-(diethylamino)-7H-pyrrolo[2,3-d]pyrimidin-4-yl)piperazine-1-carboxylate], for which the EC50 at TRPML1 (fluorescent calcium assay) was 100 to 500 nM; at TRPML2 (fluorescent calcium assay), greater than 2000 nM; on TRPML3 (fluorescent calcium assay) it was 100 to 500 nM.

As to `C[C@H]1CN(C(=O)OCC(F)(F)F)CCN1c1ncnc2c1c(-c1ccccc1F)cn2-c1cc(C#N)ccn1` [Compound 349, 2,2,2-trifluoroethyl (S)-4-(7-(4-cyanopyridin-2-yl)-5-(2-fluorophenyl)-7H-pyrrolo[2,3-d]pyrimidin-4-yl)-3-methylpiperazine-1-carboxylate], the EC50 at TRPML1 (fluorescent calcium assay), at TRPML2 (fluorescent calcium assay) and on TRPML3 (fluorescent calcium assay) was less than 100 nM throughout.

With `C[C@@H]1CN(c2ncnc3c2c(C(F)(F)F)cn3C2CCCC(C#N)C2)[C@@H](C)CN1C(=O)OC(C)(C)C` (stereo partly drawn) [Compound 629, tert-butyl (2R,5S)-4-(7-(3-cyanocyclohexyl)-5-(trifluoromethyl)-7H-pyrrolo[2,3-d]pyrimidin-4-yl)-2,5-dimethylpiperazine-1-carboxylate], the EC50 at TRPML1 was 500 to 2000 nM; on TRPML2, greater than 2000 nM; on TRPML3 it was 100 to 500 nM.

As for `C[C@@H]1CN(c2ncnc3c2c(N2CCCC2)cn3-c2cc(F)cc(F)c2)CCN1C(=O)OC(C)(C)C` [Compound 245, tert-butyl (R)-4-(7-(3,5-difluorophenyl)-5-(pyrrolidin-1-yl)-7H-pyrrolo[2,3-d]pyrimidin-4-yl)-2-methylpiperazine-1-carboxylate], the EC50 on TRPML1 (fluorescent calcium assay) was in the range of 100 to 500 nM; at TRPML2 (fluorescent calcium assay), 500 to 2000 nM; at TRPML3 (fluorescent calcium assay) it was 100 to 500 nM.

For the compound `CCOC(=O)N1CCN(c2ncnc3c2c(-c2ccccc2F)cn3-c2cc(C#N)ccn2)[C@@H](C)C1` [Compound 346, ethyl (S)-4-(7-(4-cyanopyridin-2-yl)-5-(2-fluorophenyl)-7H-pyrrolo[2,3-d]pyrimidin-4-yl)-3-methylpiperazine-1-carboxylate], the EC50 at TRPML1 (fluorescent calcium assay), on TRPML2 (fluorescent calcium assay) and on TRPML3 (fluorescent calcium assay) was less than 100 nM in each case.

For the compound `[2H]C([2H])([2H])C(OC(=O)N1C[C@H](C)N(c2ncnc3c2c(C(F)F)cn3-c2cc(C#N)ccn2)C[C@H]1C)(C([2H])([2H])[2H])C([2H])([2H])[2H]` [Compound 538, 2-(methyl-d3)propan-2-yl-1,1,1,3,3,3-d6 (2R,5S)-4-(7-(4-cyanopyridin-2-yl)-5-(difluoromethyl)-7H-pyrrolo[2,3-d]pyrimidin-4-yl)-2,5-dimethylpiperazine-1-carboxylate], the figures for the EC50 on TRPML1, at TRPML2 and on TRPML3 were less than 100 nM, 100 to 500 nM and less than 100 nM, respectively.

Take `C[C@H]1CN(C(=O)OC(C)(C)C)CCN1c1ncnc2c1c(-c1ncccn1)cn2-c1cccc(Cl)c1` [Compound 116, tert-butyl (S)-4-(7-(3-chlorophenyl)-5-(pyrimidin-2-yl)-7H-pyrrolo[2,3-d]pyrimidin-4-yl)-3-methylpiperazine-1-carboxylate]: the values for the EC50 at TRPML1 (fluorescent calcium assay), on TRPML2 (fluorescent calcium assay) and on TRPML3 (fluorescent calcium assay) were 100 to 500 nM, 500 to 2000 nM and 100 to 500 nM, respectively.

For `C[C@H]1CN(C(=O)OC(C)(C)C)CCN1c1ncnc2c1c(-c1ccccc1F)cn2-c1cc(C(F)(F)F)ccn1` [Compound 651, tert-butyl (S)-4-(5-(2-fluorophenyl)-7-(4-(trifluoromethyl)pyridin-2-yl)-7H-pyrrolo[2,3-d]pyrimidin-4-yl)-3-methylpiperazine-1-carboxylate], the EC50 at TRPML1, on TRPML2 and at TRPML3 was less than 100 nM in each case.

As to `C[C@H]1CN(C(=O)OC(C)(C)C)CCN1c1ncnc2c1c(-c1ccccc1F)cn2-c1cc(C#N)cnn1` [Compound 447, tert-butyl (S)-4-(7-(5-cyanopyridazin-3-yl)-5-(2-fluorophenyl)-7H-pyrrolo[2,3-d]pyrimidin-4-yl)-3-methylpiperazine-1-carboxylate], the EC50 at TRPML1 (fluorescent calcium assay), at TRPML2 (fluorescent calcium assay) and at TRPML3 (fluorescent calcium assay) was less than 100 nM each time.

For `C[C@@H]1CN(c2ncnc3c2c(CC(F)(F)F)cn3-c2cc(C#N)ccn2)[C@@H](C)CN1C(=O)OC(C)(C)C` [Compound 619], the EC50 at TRPML1 is less than 100 nM; on TRPML2, 500 to 2000 nM; at TRPML3, less than 100 nM.

Turning to `C[C@H]1CN(C(=O)OC(C)(C)C)CCN1c1ncnc2c1c(-c1ccccc1F)cn2-c1cc(C#N)ccn1` [Compound 268, tert-butyl (S)-4-(7-(4-cyanopyridin-2-yl)-5-(2-fluorophenyl)-7H-pyrrolo[2,3-d]pyrimidin-4-yl)-3-methylpiperazine-1-carboxylate], the EC50 at TRPML1 (fluorescent calcium assay), at TRPML2 (fluorescent calcium assay) and at TRPML3 (fluorescent calcium assay) was less than 100 nM each time.

Consider `Cc1ccnc(-n2cc(C(F)(F)F)c3c(N4C[C@@H](C)N(C(=O)OC(C)(C)C)C[C@@H]4C)ncnc32)c1` [Compound 665, tert-butyl (2R,5S)-2,5-dimethyl-4-(7-(4-methylpyridin-2-yl)-5-(trifluoromethyl)-7H-pyrrolo[2,3-d]pyrimidin-4-yl)piperazine-1-carboxylate], for which the EC50 at TRPML1 is less than 100 nM; on TRPML2, 500 to 2000 nM; on TRPML3, less than 100 nM.
